From PMC2248166, “Quantitative peptide binding motifs for 19 human and mouse MHC class I molecules derived using positional scanning combinatorial peptide libraries” (Immunome Research, 2008)
Where a SMILES comes first, the peptide text is derived from it.

Biological target: HLA B*1501 (Homo sapiens, UniProt P01889, A329T/A93T/A95T/C349S/D201E/D98Y/E187L/E204Q/E69M/E70A/K202T/N87E/Q94N/R155S/R180W/S121R/S35A/S48A/V306I/V36M/Y140S/Y91S)
Experiment: biochemical
Format: binding

Structure (SMILES)	IC50
CSCC[C@H](NC(=O)[C@H](CCC(N)=O)NC(=O)[C@H](CO)NC(=O)[C@H](CO)NC(=O)[C@@H](N)CC(C)C)C(=O)N[C@H](C(=O)N[C@@H](CO)C(=O)N[C@H](C(=O)N[C@@H](Cc1ccccc1)C(=O)O)[C@@H](C)O)[C@@H](C)O [3102.0940] (H-LSSQMTSTF-OH)	0.004 µM
CSCC[C@H](NC(=O)[C@H](CO)NC(=O)[C@@H](NC(=O)[C@H](CC(C)C)NC(=O)[C@H](CCCCN)NC(=O)[C@H](CO)NC(=O)[C@@H](N)Cc1ccc(O)cc1)[C@@H](C)O)C(=O)N[C@@H](Cc1c[nH]cn1)C(=O)N[C@@H](Cc1ccccc1)C(=O)O [3102.0944] (H-YSKLTSMHF-OH)	0.00057 µM
CC[C@H](C)[C@H](NC(=O)[C@H](CO)NC(=O)[C@@H](N)CCSC)C(=O)N[C@H](C(=O)N[C@@H](CO)C(=O)N[C@@H](Cc1ccccc1)C(=O)N[C@@H](Cc1ccccc1)C(=O)N1CCC[C@H]1C(=O)N[C@@H](Cc1ccccc1)C(=O)O)[C@@H](C)CC [3102.0947] (H-MSIISFFPF-OH)	0.00017 µM
CC[C@H](C)[C@H](NC(=O)[C@@H](N)CO)C(=O)N[C@@H](CCCCN)C(=O)N[C@@H](CC(N)=O)C(=O)N[C@@H](CC(C)C)C(=O)N[C@H](C(=O)N[C@@H](CO)C(=O)N[C@@H](CCC(N)=O)C(=O)N[C@@H](Cc1ccccc1)C(=O)O)C(C)C [3102.0951] (H-SIKNLVSQF-OH)	0.025 µM
CC(C)C[C@H](NC(=O)[C@H](Cc1ccc(O)cc1)NC(=O)[C@H](Cc1ccccc1)NC(=O)[C@@H](NC(=O)[C@H](CC(N)=O)NC(=O)[C@H](CCCCN)NC(=O)[C@H](CO)NC(=O)[C@@H](N)CC(C)C)[C@@H](C)O)C(=O)N[C@@H](Cc1ccccc1)C(=O)O [3102.0952] (H-LSKNTFYLF-OH)	0.014 µM
CC[C@H](C)[C@H](NC(=O)[C@@H](NC(=O)[C@H](Cc1ccccc1)NC(=O)[C@H](CCCCN)NC(=O)[C@H](CCC(N)=O)NC(=O)[C@@H](N)CCSC)[C@@H](C)O)C(=O)N[C@@H](CC(C)C)C(=O)N[C@@H](CCC(=O)O)C(=O)N[C@@H](Cc1ccc(O)cc1)C(=O)O [3102.0953] (H-MQKFTILEY-OH)	0.01 µM
CC[C@H](C)[C@H](NC(=O)[C@H](CCCNC(=N)N)NC(=O)[C@H](Cc1ccc(O)cc1)NC(=O)[C@H](CCC(N)=O)NC(=O)[C@@H](NC(=O)[C@@H](N)CC(C)C)C(C)C)C(=O)N[C@@H](CC(C)C)C(=O)N1CCC[C@H]1C(=O)N[C@@H](CCSC)C(=O)O [3102.0954] (H-LVQYRILPM-OH)	0.063 µM
CC[C@H](C)[C@H](NC(=O)[C@H](CCC(=O)O)NC(=O)[C@@H](N)CCC(=O)O)C(=O)N[C@@H](CO)C(=O)N[C@H](C(=O)N[C@@H](CO)C(=O)N[C@@H](CC(C)C)C(=O)N[C@@H](CO)C(=O)N[C@@H](Cc1ccccc1)C(=O)O)[C@@H](C)O [3102.0958] (H-EEISTSLSF-OH)	0.0021 µM
CC(C)C[C@H](NC(=O)[C@H](CC(N)=O)NC(=O)[C@H](C)NC(=O)[C@H](CO)NC(=O)[C@@H](N)CC(C)C)C(=O)N[C@@H](Cc1ccccc1)C(=O)N[C@@H](CCC(=O)O)C(=O)N[C@@H](CO)C(=O)N[C@@H](CCC(N)=O)C(=O)O [3102.0959] (H-LSANLFESQ-OH)	0.045 µM
C[C@H](NC(=O)[C@H](CO)NC(=O)[C@@H](N)CCCNC(=N)N)C(=O)N[C@@H](CC(N)=O)C(=O)N[C@H](C(=O)N[C@@H](CO)C(=O)N[C@@H](C)C(=O)N1CCC[C@H]1C(=O)N[C@@H](Cc1ccccc1)C(=O)O)[C@@H](C)O [3102.0964] (H-RSANTSAPF-OH)	0.00068 µM
CC[C@H](C)[C@H](NC(=O)CNC(=O)[C@@H](NC(=O)[C@H](CCCCN)NC(=O)[C@@H](NC(=O)[C@@H](N)CCC(=O)O)[C@@H](C)CC)[C@@H](C)O)C(=O)N[C@@H](CO)C(=O)N[C@@H](CO)C(=O)N[C@@H](Cc1ccccc1)C(=O)O [3102.0969] (H-EIKTGISSF-OH)	0.09 µM
CC[C@H](C)[C@H](NC(=O)[C@@H](N)CCC(=O)O)C(=O)N[C@@H](Cc1ccccc1)C(=O)N[C@@H](CCCCN)C(=O)N[C@@H](Cc1c[nH]cn1)C(=O)N[C@@H](CC(C)C)C(=O)N[C@H](C(=O)N[C@@H](Cc1ccccc1)C(=O)N[C@@H](Cc1ccccc1)C(=O)O)C(C)C [3102.0972] (H-EIFKHLVFF-OH)	0.012 µM
CC[C@H](C)[C@H](NC(=O)[C@H](CC(C)C)NC(=O)[C@H](CC(=O)O)NC(=O)[C@H](CCCNC(=N)N)NC(=O)[C@H](CCSC)NC(=O)[C@@H](N)CC(N)=O)C(=O)N[C@H](C(=O)N[C@H](C(=O)N[C@@H](Cc1ccccc1)C(=O)O)[C@@H](C)O)C(C)C [3102.0975] (H-NMRDLIVTF-OH)	0.0083 µM
CC(C)C[C@H](NC(=O)[C@@H](N)CC(C)C)C(=O)N[C@@H](CO)C(=O)N[C@@H](CCCNC(=N)N)C(=O)N[C@@H](Cc1ccc(O)cc1)C(=O)N[C@@H](CC(=O)O)C(=O)N[C@@H](CCC(=O)O)C(=O)N[C@@H](Cc1c[nH]cn1)C(=O)N[C@@H](Cc1ccccc1)C(=O)O [3102.0976] (H-LLSRYDEHF-OH)	0.054 µM
CSCC[C@H](NC(=O)[C@H](Cc1c[nH]cn1)NC(=O)[C@H](CCC(=O)O)NC(=O)[C@H](Cc1ccccc1)NC(=O)[C@H](Cc1ccc(O)cc1)NC(=O)CNC(=O)[C@H](CCCNC(=N)N)NC(=O)[C@H](CO)NC(=O)[C@@H](N)CCSC)C(=O)O [3102.0982] (H-MSRGYFEHM-OH)	0.031 µM
CC[C@H](C)[C@H](NC(=O)[C@H](CCSC)NC(=O)[C@@H](N)CO)C(=O)N[C@@H](CC(N)=O)C(=O)N[C@@H](Cc1ccc(O)cc1)C(=O)N[C@@H](Cc1ccc(O)cc1)C(=O)N[C@@H](CC(N)=O)C(=O)N[C@@H](CCC(=O)O)C(=O)N[C@@H](CCSC)C(=O)O [3102.0985] (H-SMINYYNEM-OH)	0.0023 µM
CC[C@H](C)[C@H](NC(=O)[C@@H](N)Cc1ccccc1)C(=O)N[C@@H](CC(N)=O)C(=O)N[C@@H](CO)C(=O)N[C@H](C(=O)N[C@@H](CS)C(=O)N[C@@H](Cc1ccc(O)cc1)C(=O)N[C@H](C(=O)N[C@@H](Cc1ccccc1)C(=O)O)C(C)C)[C@@H](C)O [3102.0986] (H-FINSTCYVF-OH)	0.0043 µM
C[C@@H](O)[C@H](NC(=O)[C@H](Cc1ccccc1)NC(=O)[C@H](CO)NC(=O)[C@@H](N)CCCNC(=N)N)C(=O)N[C@@H](Cc1ccccc1)C(=O)N[C@@H](CCCCN)C(=O)N[C@@H](CCC(=O)O)C(=O)NCC(=O)N[C@@H](Cc1ccccc1)C(=O)O [3102.0988] (H-RSFTFKEGF-OH)	0.035 µM
CC[C@H](C)[C@H](NC(=O)[C@H](CO)NC(=O)[C@@H](N)CCSC)C(=O)N[C@@H](CC(=O)O)C(=O)N[C@@H](Cc1c[nH]cn1)C(=O)N[C@@H](CS)C(=O)N[C@@H](CO)C(=O)N[C@@H](CO)C(=O)N[C@@H](Cc1ccccc1)C(=O)O [3102.0989] (H-MSIDHCSSF-OH)	0.00095 µM
CC[C@H](C)[C@H](N)C(=O)N[C@H](C(=O)N[C@@H](Cc1ccc(O)cc1)C(=O)N[C@@H](CS)C(=O)N[C@@H](CC(C)C)C(=O)N[C@H](C(=O)N[C@H](C(=O)N[C@@H](Cc1c[nH]cn1)C(=O)N[C@@H](CCSC)C(=O)O)[C@@H](C)O)C(C)C)[C@@H](C)O [3102.0993] (H-ITYCLVTHM-OH)	0.025 µM
CC(C)C[C@H](NC(=O)[C@H](Cc1ccc(O)cc1)NC(=O)[C@H](C)NC(=O)[C@@H](N)CCCCN)C(=O)N[C@@H](Cc1ccc(O)cc1)C(=O)N[C@H](C(=O)N[C@@H](CCC(=O)O)C(=O)N[C@@H](Cc1ccc(O)cc1)C(=O)N[C@@H](Cc1ccccc1)C(=O)O)[C@@H](C)O [3102.0995] (H-KAYLYTEYF-OH)	0.0076 µM
